Results from patent US5573926A, “Process for obtaining aroma components and aromas from their precursors of a glycosidic nature, and aroma components and aromas thereby obtained” (Gist-brocades, N.V., priority 1989, dated 1996).

Assays:
β-glucosidase [1] = assay: Second stage: consecutive action of β-glucosidase on the pre-incubated glycosidic extract (GC); format: biochemical, sweet almond; settings: 0.15 nkat, 40°, 16 h
Method: (§1) 40 μl of glycosidic extract and 60 μl of a solution of Glc-pNP (internal standard) at a concentration of 50 mg/1 in ethyl acetate are introduced into a suitable flask. The mixture is taken to dryness at 40° C. with a stream of nitrogen. 40 μl of the silylating reagent (Tri-sil, Pierce, Rockford, Ill., U.S.A.) are then introduced; the flask is sealed and maintained at 40° C. for 20 minutes. After rapid cooling, the silylated sample is then ready for analysis by GC.
(§2) The apparatus used consists of a Series 30C gas chromatograph, an "on-column" injector (injected volume 0.5 μl) and a flame ionization detector (Girdel, France). A thin film (0.20 μm) of an OV-1 (Girdel) apolar silicone phase is grafted onto the inner wall of the capillary column ([…].). The oven temperature is programmed from 125 to 305° C. at the rate of 5° C./minute, then maintained at 305° C. for 15 minutes. Finally, the detector temperature is set at 300° C. and hydrogen is used as the carrier gas at a pressure of 120 kPa.
(§3) The experimental protocols for the enzymatic hydrolysis on the glycosidic extract are collated in Table 3. […]

[2] = target: T1, β-glucosidase (originating from the yeast Candida wickerhamii CBS 2928) (Nakazawaea wickerhamii, UniProt Q12601); assay: Hydrolysis of monoglucosides in naturally sweet wines by Candida wickerhamii β-glucosidase; format: biochemical
T1 sequence (Q12601 20-609): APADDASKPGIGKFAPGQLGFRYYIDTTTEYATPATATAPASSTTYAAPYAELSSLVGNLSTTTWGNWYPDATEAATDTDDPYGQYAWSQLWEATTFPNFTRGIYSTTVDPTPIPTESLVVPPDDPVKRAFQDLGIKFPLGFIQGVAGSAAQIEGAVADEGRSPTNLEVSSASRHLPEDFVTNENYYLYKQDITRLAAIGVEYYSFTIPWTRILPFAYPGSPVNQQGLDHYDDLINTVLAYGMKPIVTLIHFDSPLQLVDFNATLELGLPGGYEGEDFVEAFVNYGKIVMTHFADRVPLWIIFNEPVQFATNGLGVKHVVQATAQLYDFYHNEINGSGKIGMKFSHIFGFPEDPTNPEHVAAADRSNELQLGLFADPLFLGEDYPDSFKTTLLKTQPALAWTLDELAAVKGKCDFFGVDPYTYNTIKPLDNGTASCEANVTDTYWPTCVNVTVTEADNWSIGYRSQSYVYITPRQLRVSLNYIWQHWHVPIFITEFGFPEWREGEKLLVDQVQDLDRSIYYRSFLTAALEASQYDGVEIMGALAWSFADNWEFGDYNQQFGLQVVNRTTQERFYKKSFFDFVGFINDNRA

α-rhamnosidase [3] = assay: Enzymatic hydrolysis of the muscat glycosidic extract by α-rhamnosidase (GC); format: biochemical; settings: 0.15 nkat, 40° C., 16 h
Method: as §1, §2, §3

α-arabinosidase [4] = assay: Enzymatic hydrolysis of the muscat glycosidic extract by α-arabinosidase (GC); format: biochemical; settings: for Terpene monoglucosides liberated by α-arabinosidase from a glycosidic extract / GC peak of the glycosidic extract after incubation with α-arabinosidase: 0.15 nkat, 40° C., 16 h; for % of monoglucosides (liberated by the two enzymes together): sum of α-arabinosidase and α-rhamnosidase; for Compounds appearing after action of α-arabinosidase: HPLC-collected peak, appears together with arabinose
Method: as §1, §2, §3

β-glucosidase [5] = assay: Enzymatic hydrolysis of synthetic substrates by β-glucosidase (TLC, pNP liberated, GC); format: biochemical, sweet almond; settings: media previously incubated with α-arabinosidase or α-rhamnosidase; 0.15 nkat, 40° C., 90 min
Method: An ethyl acetate/isopropanol/water (65:30:10 v/v/v) mixture was used as a migration solvent. The sugars and the glycosides are visualized by means of the following mixture, prepared immediately before use: 0.2% naphthoresorcinol in ethanol/concentrated sulphuric acid (19:1 v/v). The application of this visualizing agent is followed by drying the plates in the oven (105° C.) for 15 minutes. Apart from their migration distance, the various compounds are also distinguished by their colour. The glycosides are purple-red, the arabinosides are bluish, the apiosides are green, rhamnose greenish pink, arabinose blue, apiose green and glucose pink. […] The hydrolysis and analysis protocols are given in plan form (Table 2). […]

[6] = Enzymatic hydrolysis of a glycosidic extract in natural media (must, dry wine) by Hemicellulase REG2 + Naringinase; format: biochemical; settings: 25° C., 86 hours
Method: The enzymatic hydrolysis of a glycosidic extract incorporated, on the one hand into a natural medium (must or dry wine), and on the other hand into a reference medium (buffer), by the action of commercial preparations containing the requisite three glycosidases, was studied.
A juice and a wine of a vine variety not containing terpenols and terpene glycosides, but enriched beforehand with a known amount of glycosidic extract of muscat, are treated with commercial enzyme preparations. The media, as well as controls, are incubated at 25° C. for 86 hours (see the experimental protocol plan below). They are then passed through a column of Amberlite XAD-2 according to the protocol applied for the production of the glycosidic extract, and the terpenols are assayed by GC.

α-arabinosidase [7] = assay: Enzymatic hydrolysis of synthetic substrates by α-arabinosidase (TLC); format: biochemical; settings: 0.15 nkat, 40° C., 90 min, pH 4.2
Method: (§4) Thin-layer adsorption chromatography was carried out on pieces of aluminium foil covered with a thin layer (0.2 mm) of silica gel (5553 Silica gel 60 without a fluorescence indicator, Merck). An ethyl acetate/isopropanol/water (65:30:10 v/v/v) mixture was used as a migration solvent.
(§5) The sugars and the glycosides are visualized by means of the following mixture, prepared immediately before use: 0.2% naphthoresorcinol in ethanol/concentrated sulphuric acid (19:1 v/v). The application of this visualizing agent is followed by drying the plates in the oven (105° C.) for 15 minutes. Apart from their migration distance, the various compounds are also distinguished by their colour. The glycosides are purple-red, the arabinosides are bluish, the apiosides are green, rhamnose greenish pink, arabinose blue, apiose green and glucose pink.
(§6) In all the tests relating to the enzymatic hydrolysis of the synthetic substrates, the same glycosidase activity (0.15 nkat) is used for each of the enzymes (α-arabinosidase, apiosidase, α-rhamnosidase, β-glucosidase).
(§7) The hydrolysis and analysis protocols are given in plan form (Table 2). […]

[8] = system: α-arabinosidase and then β-glucosidase; assay: Sequential hydrolysis by α-arabinosidase and then β-glucosidase (GC of sugars, glucosides, terpenols); format: biochemical; settings: HPLC-collected peak; appears together with glucose
Method: The monoterpene alcohols studied here are sufficiently volatile to be chromatographed as they are. To the pentane extract containing them, the internal standard, 4-nonanol (for synthesis, Merck, Darmstadt, FRG) is added in the proportion of 1 μl of a solution at a concentration of 2.89 mg/ml in pentane per 50 μl of medium. The mixture is then dried over sodium sulphate, filtered through glass wool and then concentrated to a volume in the region of 100 μl For this purpose, the pentane is first removed using a conventional still, and then a Dufton type column of a size suited to the volume remaining to be concentrated.
The constituents of the concentrated extract are separated using a capillary column (25 m×0.32 mm I.D.) containing a CP wax 52 CB (Chrompack, Middelburg, Netherlands) polar phase. The grafted polyethylene glycol film was selected thick (1.28 μm) in order to permit the injection of large sample volumes, up to 4 μl. […]
Furthermore, each fraction was subjected to the sequential action of α-arabinosidase and then β-glucosidase. At the end of each stage and according to the procedures described, the incubated medium was analysed by GC in order to test for sugars and glucosides on the one hand, and for terpenols on the other hand. […]

α-rhamnosidase [9] = assay: Enzymatic hydrolysis of synthetic substrates by α-rhamnosidase (TLC); format: biochemical; settings: 0.15 nkat, 40° C., 90 min, pH 4.2
Method: as §4, §5, §6, §7

[10] = system: β-glucosidase (originating from Aspergillus niger); assay: Inhibition of β-glucosidase activity by glucose in must and sweet wine; format: biochemical

CC(C)=CCC/C(C)=C/CO[C@@H]1O[C@H](CO)[C@@H](O)[C@H](O)[C@H]1O [Glc-Ger, geranyl β-D-glucopyranoside]
hydrolysis by consecutive action of β-glucosidase (second stage, GC) (β-glucosidase [1]): disappearance
hydrolyzed by Candida wickerhamii β-glucosidase ([2]; pH 3.6): 45%
hydrolyzed by Candida wickerhamii β-glucosidase ([2]; pH 4.0): two thirds
Terpene monoglucosides liberated by α-rhamnosidase from a glycosidic extract (α-rhamnosidase [3]): 9%
Terpene monoglucosides liberated by α-arabinosidase from a glycosidic extract (α-arabinosidase [4]): 39%
% of monoglucosides (liberated by the two enzymes together) (α-arabinosidase [4]): 48%
consecutive action of β-glucosidase (second stage, TLC) (β-glucosidase [5]): disappearance of Glc-Ger and Glc-pNP and the appearance of glucose

C=CC(C)(O)CCC=C(C)C (stereo not drawn) [Linalol]
Compounds liberated relative to the reference medium ([6]; MUST (pH 3.4, sugars 180 g/l)): 9%
Compounds liberated relative to the reference medium ([6]; WINE (dry white, pH 3.1)): 14%

O=[N+]([O-])c1ccc(O[C@@H]2O[C@H](CO)[C@@H](O)[C@H](O)[C@H]2O)cc1 [Glc-pNP, p-nitrophenyl β-D-glucopyranoside, reference compound]
consecutive action of β-glucosidase (second stage, TLC) (β-glucosidase [5]): disappearance of Glc-Ger and Glc-pNP and the appearance of glucose

O=[N+]([O-])c1ccc(O[C@@H]2O[C@H](CO[C@@H]3O[C@@H](CO)[C@H](O)[C@H]3O)[C@@H](O)[C@H](O)[C@H]2O)cc1 [Ara-Glc-pNP, p-Nitrophenyl 6-O-(α-L-arabinofuranosyl)-β-D-glucopyranoside]
hydrolysis by α-arabinosidase (TLC) (α-arabinosidase [7]): disappearance of this substrate and the appearance of arabinose and Glc-pNP

OCc1ccccc1 [Benzyl alcohol]
Compounds liberated relative to the reference medium ([6]; MUST (pH 3.4, sugars 180 g/l)): 46%
Compounds liberated relative to the reference medium ([6]; WINE (dry white, pH 3.1)): 50%

CC(C)=CCC/C(C)=C/CO[C@@H]1O[C@H](CO[C@@H]2O[C@@H](CO)[C@H](O)[C@H]2O)[C@@H](O)[C@H](O)[C@H]1O (single isomer, unassigned) [Ara-Glc-Ger, Geranyl 6-O-(α-L-arabinofuranosyl)-β-D-glucopyranoside]
Compounds appearing after action of α-arabinosidase and then β-glucosidase [8]: geraniol
GC peak of the glycosidic extract after incubation with α-arabinosidase (α-arabinosidase [4]): disappear completely
Compounds appearing after action of α-arabinosidase (α-arabinosidase [4]): Glc--Ger

C[C@@H]1O[C@@H](OC[C@H]2O[C@@H](Oc3ccc([N+](=O)[O-])cc3)[C@H](O)[C@@H](O)[C@@H]2O)[C@H](O)[C@H](O)[C@H]1O [Rha-Glc-pNP]
hydrolysis by α-rhamnosidase (TLC) (α-rhamnosidase [9]): disappearance of these substrates

CC(C)=CCC/C(C)=C\CO[C@@H]1O[C@H](CO[C@@H]2O[C@@H](CO)[C@H](O)[C@H]2O)[C@@H](O)[C@H](O)[C@H]1O [Ara-Glc-Ner, neryl a-L-arabinofuranosyl-(1→6)-β-D-glucopyranoside]
Compounds appearing after action of α-arabinosidase and then β-glucosidase [8]: nerol
GC peak of the glycosidic extract after incubation with α-arabinosidase (α-arabinosidase [4]): disappear completely
Compounds appearing after action of α-arabinosidase (α-arabinosidase [4]): Glc--Ner

OC[C@H]1OC(O)[C@H](O)[C@@H](O)[C@@H]1O (stereo partly drawn) [glucose]
effect on β-glucosidase activity ([10]; glucose 30 g/l in naturally sweet wines): inhibiting β-glucosidase
effect on β-glucosidase activity ([10]; glucose present in large amounts in the must): inhibition of the β-glucosidase activity

CC(C)=CCC/C(C)=C\CO[C@@H]1O[C@H](CO)[C@@H](O)[C@H](O)[C@H]1O [Glc-Ner, neryl β-D-glucopyranoside]
hydrolysis by consecutive action of β-glucosidase (second stage, GC) (β-glucosidase [1]): disappearance
hydrolyzed by Candida wickerhamii β-glucosidase ([2]; pH 3.6): 19%
hydrolyzed by Candida wickerhamii β-glucosidase ([2]; pH 4.0): two thirds
Terpene monoglucosides liberated by α-rhamnosidase from a glycosidic extract (α-rhamnosidase [3]): 5%
Terpene monoglucosides liberated by α-arabinosidase from a glycosidic extract (α-arabinosidase [4]): 28%
% of monoglucosides (liberated by the two enzymes together) (α-arabinosidase [4]): 33%

CC(C)=CCC/C(C)=C/CO[C@@H]1O[C@H](CO[C@@H]2O[C@@H](C)[C@H](O)[C@@H](O)[C@H]2O)[C@@H](O)[C@H](O)[C@H]1O [Rha-Glc-Ger, Geranyl 6-O-(α-L-rhamnopyranosyl)-β-D-glucopyranoside]
GC peak of the glycosidic extract after the action of α-rhamnosidase (α-rhamnosidase [3]): decreases
hydrolysis by α-rhamnosidase (TLC) (α-rhamnosidase [9]): disappearance of these substrates
